In patent US4581354A, “3-arylcarbonyl- and 3-cycloalkylcarbonyl-1-aminoalkyl-1H-indoles, compositions and use” (Sterling Drug Inc., priority 1985, dated 1986):
Where two headings read alike, the source gives them in different places.

System: acetylcholine-induced abdominal constriction
Assay: animal or person
Format: in vivo, mice
Conditions: for ED50: read-out: Ach ED50; for inhibition in vivo at 300 mg/kg: 300 mg./kg. oral; for inhibition in vivo at 3 mg/kg: 3 mg./kg. i.v.; for inhibition in vivo at 10 mg/kg: 10 mg./kg. i.v.; for inhibition in vivo at 550 mg/kg: 550 mg./kg. oral; for inhibition in vivo at 150 mg/kg: 150 mg./kg. oral
Description: The test procedures used to determine the analgesic activities of the compounds have been described in detail in the prior art and are as follows: The acetylcholine-induced abdominal constriction test, which is a primary analgesic screening test designed to measure the ability of a test agent to suppress acetylcholine-induced abdominal constriction in mice, described by Collier et al., Brit. J. Pharmacol. Chemotherap. 32, 295 (1968); a modification of the anti-bradykinin test, which is also a primary analgesic screening procedure, described by Berkowitz et al., J. Pharmacol. Exptl. Therap. 177, 500-508 (1971), Blane et al., J. Pharm. Pharmacol. 19, 367-373 (1967), Botha et al., Eur. J. Pharmacol. 6, 312-321 (1969) and Deffenu et al., J. Pharm. Pharmacol. 18, 135 (1966); and the rat paw flexion test, described by Kuzuna et al., Chem. Pharm. Bull., 23, 1184-1191 (1975), Winter et al., J. Pharm. Exptl. Therap., 211, 678-685 (1979) and Capetola et al., J. Pharm. Exptl. Therap. 214, 16-23 (1980).
Unless noted otherwise, all data were obtained on oral administration and are expressed either as the ED50 or as the percent inhibition at a given dose level (thus 30/100 or 30% inhibition at […].)
In some instances, the compounds were retested two or more times, and ED50 values were calculated for each series of repeat tests. In such instances, each of the ED50 values so-obtained is given in a series of values, thus 6, 28, 30, 43 in the case of the species of Example 1AW in the acetylcholine-induced abdominal constriction test.

[1] = Mus musculus, po, 100 mg./kg. oral, read-out: Ach percent inhibition
[2] = Mus musculus, po, read-out: Ach percent inhibition
[3] = Mus musculus, iv, read-out: Ach percent inhibition
[4] = Mus musculus, iv, 30 mg./kg. i.v., read-out: Ach percent inhibition
[5] = Mus musculus, sc, 30 mg./kg. s.c., read-out: Ach percent inhibition
[6] = Mus musculus, po, 30 mg./kg. oral, read-out: Ach percent inhibition

| Compound | ED50 (Mus musculus, po) | inhibition in vivo at 100 mg/kg [1] | other results |
| --- | --- | --- | --- |
| 5-bromo-2-methyl-3-(4-methylbenzoyl)-1-[2-(4-morpholinyl)ethyl]-1H-indole [Example 33] | – | – | Ach percent inhibition (100 mg./kg. oral): 20% |
| COc1ccc(C(=O)c2c(C)n(CCN3CCOCC3)c3cc(Cl)ccc23)cc1 [Example 1-O] | 91.6 mg/kg | – | – |
| Cc1c(C(=O)c2ccc(C#N)cc2)c2ccccc2n1CCCN1CCOCC1 [Example 1AA] | – | 10% | – |
| Cc1cccc2c1c(C(=O)c1ccccc1)c(C)n2CCN1CCOCC1 [Example 1AB] | – | – | inhibition in vivo at 300 mg/kg [2]: 47% |
| Cc1c(C(=O)c2ccc(C#N)cc2)c2ccccc2n1CCN1CCOCC1 [Example 1AF, 2-methyl-3-(4-cyanobenzoyl)-1-[2-(4-morpholinyl)ethyl]-1H-indole] | 200 mg/kg | – | inhibition in vivo at 3 mg/kg [3]: 0%; inhibition in vivo at 10 mg/kg [3]: 0%; inhibition in vivo at 30 mg/kg [4]: 30% |
| Cc1c(C(=O)c2ccc(OCc3ccccc3)cc2)c2ccccc2n1CCN1CCOCC1 [Example 1AG, 2-methyl-3-(4-benzyloxybenzoyl)-1-[2-(4-morpholinyl)ethyl]-1H-indole] | – | 40% | inhibition in vivo at 10 mg/kg [3]: 10%; inhibition in vivo at 30 mg/kg [4]: 56%; inhibition in vivo at 300 mg/kg [2]: 47%; inhibition in vivo at 30 mg/kg [5]: 20% |
| COc1cccc(C(=O)c2c(C)n(CCN3CCOCC3)c3ccccc23)c1 [Example 1AH] | 85 mg/kg | – | – |
| COc1ccc(C(=O)c2c(C)n(CCN3CCOCC3)c3ccccc23)cc1OC [Example 1AI] | 74 mg/kg | – | – |
| COc1ccc(C(=O)c2c(-c3ccccc3)n(CCN3CCOCC3)c3ccccc23)cc1 [Example 1AJ] | – | 13% | inhibition in vivo at 300 mg/kg [2]: 53% |
| COc1ccc2c(c1)c(C(=O)c1ccccc1)cn2CCN1CCOCC1 [Example 1AK] | – | – | inhibition in vivo at 300 mg/kg [2]: 40%; inhibition in vivo at 550 mg/kg [2]: 47% |
| COc1ccc2c(c1)c(C(=O)c1ccccc1)c(C)n2CCN1CCOCC1 [Example 1AL] | 113 mg/kg | – | – |
| COc1ccc(C(=O)c2c(C)n(CCN3CCOCC3)c3cc(OC)ccc23)cc1 [Example 1AM] | 32 mg/kg | – | ED50 (Mus musculus, iv): 5 mg/kg |
| O=C(c1ccc(Cl)cc1)c1cn(CCN2CCOCC2)c2ccccc12 [Example 1AR] | – | – | inhibition in vivo at 150 mg/kg [2]: 27%; inhibition in vivo at 300 mg/kg [2]: 27%; inhibition in vivo at 25 mg/kg (Mus musculus, sc, 25 mg./kg. s.c., read-out: Ach percent inhibition): 13% |
| Cc1c(C(=O)c2ccc(Cl)c(Cl)c2)c2ccccc2n1CCN1CCOCC1 [Example 1AS] | – | – | inhibition in vivo at 300 mg/kg [2]: 33% |
| CC(Cn1cc(C(=O)c2ccccc2)c2ccccc21)N1CCOCC1 (centres unmarked) [Example 1AZ] | – | 73% | inhibition in vivo at 75 mg/kg (Mus musculus, po, 75 mg./kg. oral, read-out: Ach percent inhibition): 20%; inhibition in vivo at 150 mg/kg [2]: 53% |
| Cc1cccc2c(C(=O)c3ccccc3)cn(CCN3CCOCC3)c12 [Example 1BA] | 197 mg/kg | – | – |
| Cc1c(C(=O)c2cccc3ccccc23)c2ccccc2n1CCN1CCOCC1 [Example 1BB] | 97 mg/kg | – | – |
| Cc1c(C(=O)c2ccc(C#N)cc2)c2ccccc2n1CCN1CCCC1 [Example 1BC] | – | 40% | – |
| CCN(CC)CCn1c(C)c(C(=O)c2ccc(OC)cc2)c2ccccc21 [Example 1BD] | 65 mg/kg | – | – |
| CCN(CC)CCn1c(C)c(C(=O)c2ccc(OC)cc2)c2ccccc21 [Example 1BE] | – | – | Ach ED50 (oral): 50.9 mg/kg |
| COc1ccc(C(=O)c2c(C)n(CCN3CCOCC3)c3ccccc23)cc1 [Example 1BF] | – | – | inhibition in vivo at 30 mg/kg [6]: 0% |
| CCCOc1ccc(C(=O)c2c(C)n(CCN3CCOCC3)c3ccccc23)cc1 [Example 1BG] | – | – | inhibition in vivo at 300 mg/kg [2]: 33% |
| CCOc1ccc(C(=O)c2c(C)n(CCN3CCOCC3)c3ccccc23)cc1 [Example 1BH] | – | 27% | inhibition in vivo at 10 mg/kg [3]: 50%; inhibition in vivo at 30 mg/kg [6]: 0%; inhibition in vivo at 300 mg/kg [2]: 53%; inhibition in vivo at 550 mg/kg [2]: 58%; inhibition in vivo at 30 mg/kg [5]: 7% |
| COc1ccc2cc(C(=O)c3c(C)n(CCN4CCOCC4)c4ccccc34)ccc2c1 [Example 1BJ] | – | 0% | – |
| Cc1c(C(=O)c2ccc(C#N)cc2)c2cc(F)ccc2n1CCCN1CCOCC1 [Example 1BL] | – | 0% | – |
| COc1ccc(C(=O)c2cn(CCCN3CCOCC3)c3ccc(F)cc23)cc1 [Example 1BM] | – | 0% | – |
| COc1ccc(C(=O)c2c(C)n(CCCN3CCCCC3)c3ccc(F)cc23)cc1 [Example 1BN] | 36 mg/kg | – | – |

| Compound | ED50 (Mus musculus, po) | inhibition in vivo at 100 mg/kg [1] | other results |
| --- | --- | --- | --- |
| Cc1c(C(=O)c2ccccc2)c2cc(F)ccc2n1CCCN1CCOCC1 [Example 1BO] | 173 mg/kg | – | – |
| CCN(CC)CCCn1c(C)c(C(=O)c2ccc(OC)cc2)c2cc(F)ccc21 [Example 1BP] | 28 mg/kg | – | – |
| COc1ccc(C(=O)c2c(C)n(CCCN3CCOCC3)c3c(F)cc(F)cc23)cc1 [Example 1BR] | 123 mg/kg | – | – |
| COc1ccc(C(=O)c2c(C)n(C(C)CCN3CCOCC3)c3ccc(F)cc23)cc1 (centres unmarked) [Example 1BT] | – | 90% | – |
| Cc1c(C(=O)c2ccccc2F)c2cc(F)ccc2n1C(C)CCN1CCOCC1 (centres unmarked) [Example 1BW] | – | 10% | – |
| Cc1c(C(=O)c2ccc(-c3ccccc3)cc2)c2ccccc2n1CCN1CCOCC1 [Example 1BZ] | – | 0% | – |
| Cc1c(C(=O)c2cccc3c2OCO3)c2ccccc2n1CCN1CCOCC1 [Example 1CA] | – | 20% | – |
| Cc1c(C(=O)c2ccccc2-c2ccccc2)c2ccccc2n1CCN1CCOCC1 [Example 1CB] | – | 60% | – |
| Cc1c(C(=O)c2ccc(C#N)cc2)c2cc(F)ccc2n1CCN1CCOCC1 [Example 1CC] | – | 10% | – |
| Cc1c(C(=O)c2ccccc2F)c2ccccc2n1C(C)CCN1CCOCC1 (centres unmarked) [Example 1CD] | 79 mg/kg | – | – |
| CCN(CC)CCn1c(C)c(C(=O)c2ccc3ccccc3c2)c2ccccc21 [Example 1CE] | – | 0% | – |
| COc1ccc(C(=O)c2c(C)n(CCCN3CCCC3)c3ccccc23)cc1 [Example 1CF] | 24 mg/kg | – | – |
| COc1ccc(C(=O)c2c(C)n(CCCN3CCCC3)c3ccccc23)cc1 [Example 1CG] | – | – | Ach ED50 (oral): 46.3 mg/kg |
| CN(C)CCn1cc(C(=O)c2ccccc2)c2ccccc21 [Example 1CH] | 105 mg/kg | – | – |
| COc1ccc(C(=O)c2c(C)n(CCCCCN3CCOCC3)c3ccc(F)cc23)cc1 [Example 1CI] | – | 70% | – |
| COc1ccc(C(=O)c2c(C)n(CCCCN3CCOCC3)c3ccc(F)cc23)cc1 [Example 1CJ] | 56 mg/kg | – | – |
| Cc1c(C(=O)c2cccc(F)c2F)c2ccccc2n1CCN1CCOCC1 [Example 1CK] | – | 30% | – |
| Cc1cccc(C)c1C(=O)c1c(C)n(CCN2CCOCC2)c2ccccc12 [Example 1CL] | – | 30% | – |
| Cc1c(C(=O)c2ccco2)c2ccccc2n1CCN1CCOCC1 [Example 1C] | 126 mg/kg | – | – |
| COc1ccc(C(=O)c2c(C)n(CCN3CCOCC3)c3c(C)cccc23)cc1 [Example 1E] | – | 0% | – |
| COc1ccc(C(=O)c2c(C)n(CCN3CCOCC3)c3ccc(F)cc23)cc1 [Example 1G] | 84 mg/kg | – | inhibition in vivo at 3 mg/kg [3]: 0%; inhibition in vivo at 10 mg/kg [3]: 50%; inhibition in vivo at 30 mg/kg [4]: 100% |
| COc1ccc(C(=O)c2c(C)n(CCN3CCOCC3)c3ccccc23)cc1 [Example 1H] | – | 33% | inhibition in vivo at 3 mg/kg [3]: 0%; inhibition in vivo at 10 mg/kg [3]: 30%; inhibition in vivo at 30 mg/kg [4]: 100%; inhibition in vivo at 300 mg/kg [2]: 71%; inhibition in vivo at 30 mg/kg [5]: 2% |
| COc1ccc(C(=O)c2c(C)n(CCCN3CCOCC3)c3ccc(F)cc23)cc1.Cl [Example 1I, 5-fluoro-2-methyl-3-(4-methoxybenzoyl)-1-[3-(4-morpholinyl)propyl]-1H-indole hydrochloride] | 75 mg/kg | – | ED50 (Mus musculus, iv): 8.5 mg/kg |
| COc1ccc(C(=O)c2c(C)n(CCN3CCOCC3)c3ccccc23)cc1 [Example 1J] | – | – | Ach ED50 (i.v.): 6.7 mg/kg; Ach ED50 (oral): 86 mg/kg |
| COc1ccc(C(=O)c2c(C)n(CCN3CCCC3)c3ccccc23)cc1 [Example 1K] | 255 mg/kg | – | inhibition in vivo at 3 mg/kg [3]: 30%; inhibition in vivo at 5.5 mg/kg (Mus musculus, iv, 5.5 mg./kg. i.v., read-out: Ach percent inhibition): 25%; inhibition in vivo at 10 mg/kg [3]: 44% |
| COc1ccc(C(=O)c2c(C)n(CCN3CCOCC3)c3c(F)cccc23)cc1 [Example 1M] | – | 50% | – |
| COc1ccc(C(=O)c2c(C)n(CCN3CCOCC3)c3c(OC)cccc23)cc1 [Example 1N] | 35.8 mg/kg | – | – |
